The subject of this assay is BDF1 mice, P388 leukemia ip, median survival T/C. In words: NCI In Vivo Anticancer Drug Screen. Data for tumor model P388 Leukemia (intraperitoneal) in B6D2F1 (BDF1) mice. The note with it: endpoint: median survival time, higher = longer survival. Put shortly:
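Mice carrying the transplantable tumour receive compound or vehicle. Survival is followed in each arm, and the treated measure is divided by the vehicle measure.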

[1] abbreviates: dose: 100.0 mg/kg/injection, schedule: Q04DX003 (ip), vehicle: saline with Tween-80.
Setting [2] is: dose: 200.0 mg/kg/injection, schedule: Q04DX003 (ip), vehicle: saline with Tween-80.
Where [3] appears, read: dose: 400.0 mg/kg/injection, schedule: Q04DX003 (ip), vehicle: saline with Tween-80.
[4] abbreviates: dose: 100.0 mg/kg/injection, schedule: Q01DX009 (ip), vehicle: saline with Tween-80.
[5] abbreviates: dose: 200.0 mg/kg/injection, schedule: Q01DX009 (ip), vehicle: saline with Tween-80.
Where [6] appears, read: dose: 100.0 mg/kg/injection, schedule: Q01DX009 (ip), vehicle: saline.
The mark [7] stands for this setting: dose: 400.0 mg/kg/injection, schedule: Q01DX009 (ip), vehicle: saline.
[8] abbreviates: dose: 100.0 mg/kg/injection, schedule: Q04DX003 (ip), vehicle: saline.
The mark [9] stands for this setting: dose: 200.0 mg/kg/injection, schedule: Q04DX003 (ip), vehicle: saline.
[10] abbreviates: dose: 400.0 mg/kg/injection, schedule: Q04DX003 (ip), vehicle: saline.
[11] abbreviates: dose: 400.0 mg/kg/injection, schedule: Q01DX009 (ip), vehicle: saline with Tween-80.

This is an account of results in PubChem BioAssay AID328 (DTP/NCI, 2004).

Each structure is given as a SMILES string. Values joined by “and” are separate entries in the source; they are usually repeats but may differ in a detail not shown here. Equal entries are not always repeated. Inconclusive results and toxic doses are left out.

In the case of `O=C1OCCC1C(=O)C(O)(C(F)(F)F)C(F)(F)F` (centres undefined), the T/C is 90 % of control (dose: 100.0 mg/kg/injection, schedule: Q01DX001 (ip), vehicle: other); 90 % of control (dose: 200.0 mg/kg/injection, schedule: Q01DX001 (ip), vehicle: other); 100 % of control (dose: 400.0 mg/kg/injection, schedule: Q01DX001 (ip), vehicle: other).
For `CC(C)CC(Br)C(=O)NC(CC(C)C)C(=O)O` (centres undefined), the T/C was 104 % of control under setting [1], 100 % of control under setting [2] and 109 % of control under setting [3].
As for `N#Cc1c(Nc2cccc(Cl)c2)sc(C(=O)c2cc3cc(Cl)ccc3o2)c1N`, the T/C (dose: 50.0 mg/kg/injection, schedule: Q01DX009 (ip), vehicle: saline with Tween-80) is 109 % of control; the T/C under setting [4] was 100 % of control; the T/C under setting [5] was 93 % of control.
Turning to `O=C1N[C@@H]([C@H]2CC[C@H](Cl)CN2)C(=O)N[C@H]1[C@H]1CC[C@H](Cl)CN1`, the T/C is, setting by setting: (dose: 0.1 mg/kg/injection, schedule: Q01DX010 (ip), vehicle: saline) 154 % of control; (dose: 0.2 mg/kg/injection, schedule: Q01DX010 (ip), vehicle: saline) 181 % of control; (dose: 0.4 mg/kg/injection, schedule: Q01DX010 (ip), vehicle: saline) 227 % of control; (dose: 1.44 mg/kg/injection, schedule: Q04DX003 (ip), vehicle: saline) 170 % of control; (dose: 1.44 mg/kg/injection, schedule: Q04DX003 (ip), vehicle: water) 179 % of control; (dose: 2.4 mg/kg/injection, schedule: Q04DX003 (ip), vehicle: saline) 184 % of control. The T/C is, setting by setting: (dose: 2.4 mg/kg/injection, schedule: Q04DX003 (ip), vehicle: water) 192 % of control; (dose: 2.5 mg/kg/injection, schedule: Q01DX001 (ip), vehicle: saline) 177 % of control; (dose: 4.0 mg/kg/injection, schedule: Q04DX003 (ip), vehicle: saline) 252 % of control; (dose: 4.0 mg/kg/injection, schedule: Q04DX003 (ip), vehicle: water) 259 % of control; (dose: 5.0 mg/kg/injection, schedule: Q01DX001 (ip), vehicle: saline) 209 % of control; (dose: 6.67 mg/kg/injection, schedule: Q04DX003 (ip), vehicle: saline) 118 % of control. Further, the T/C (dose: 6.67 mg/kg/injection, schedule: Q04DX003 (ip), vehicle: water) is 118 % of control.
In the case of `CC(CC#N)NC(=O)C1CCC(N)=N1` (centres undefined), the T/C is 111 % of control under setting [6] and 103 % of control under setting [7].
For the compound `C/C(=N\N=C(N)N)c1ccc(NC(=O)Nc2ccc(/C(C)=N/N=C(N)N)cc2)cc1`, the T/C is 115 % of control (dose: 1.5 mg/kg/injection, schedule: Q04DX003 (ip), vehicle: saline); 150 % of control (dose: 5.4 mg/kg/injection, schedule: Q04DX003 (ip), vehicle: saline); 163 % of control (dose: 44.0 mg/kg/injection, schedule: Q04DX003 (ip), vehicle: saline); 118 % of control (dose: 66.0 mg/kg/injection, schedule: Q04DX003 (ip), vehicle: saline); 154 % of control under setting [8]; 179 % of control under setting [9]. For the same compound, the T/C was 180 % of control and 222 % of control (dose: 264.0 mg/kg/injection, schedule: Q04DX003 (ip), vehicle: saline); 236 % of control and 241 % of control and 190 % of control under setting [10].
Take `O=C(NC(CSC(c1ccccc1)(c1ccccc1)c1ccccc1)C(=O)O)OCc1ccccc1` (centres undefined): the T/C is, setting by setting: (dose: 50.0 mg/kg/injection, schedule: Q01DX009 (ip), vehicle: saline) 100 % of control and 110 % of control; under setting [6], 122 % of control; under setting [8], 100 % of control; (dose: 200.0 mg/kg/injection, schedule: Q01DX009 (ip), vehicle: saline) 118 % of control; under setting [9], 104 % of control; under setting [10], 100 % of control.
With `c1ccc2c(c1)ccc1cc3cc(NCCCCNc4ccc5nc6c(ccc7ccccc76)cc5c4)ccc3nc12`, the T/C was 108 % of control (dose: 1.56 mg/kg/injection, schedule: Q01DX009 (ip), vehicle: saline with Tween-80); 105 % of control (dose: 3.13 mg/kg/injection, schedule: Q01DX009 (ip), vehicle: saline with Tween-80); 108 % of control (dose: 6.25 mg/kg/injection, schedule: Q01DX009 (ip), vehicle: saline with Tween-80).
Turning to `Nc1cc(Cl)c(O)c(Cl)c1`, the T/C runs as follows: (dose: 50.0 mg/kg/injection, schedule: Q04DX003 (ip), vehicle: saline) 100 % of control; under setting [8], 100 % of control; under setting [9], 95 % of control.
`N#CCC(N)=C(C#N)C#N`: the T/C by setting is: (dose: 25.0 mg/kg/injection, schedule: Q01DX009 (ip), vehicle: Klucel (hydroxypropylcellulose) (HPC)) 100 % of control; (dose: 25.0 mg/kg/injection, schedule: Q04DX003 (ip), vehicle: Klucel (hydroxypropylcellulose) (HPC)) 95 % of control; (dose: 50.0 mg/kg/injection, schedule: Q01DX009 (ip), vehicle: Klucel (hydroxypropylcellulose) (HPC)) 87 % of control; (dose: 50.0 mg/kg/injection, schedule: Q04DX003 (ip), vehicle: Klucel (hydroxypropylcellulose) (HPC)) 104 % of control; (dose: 100.0 mg/kg/injection, schedule: Q01DX009 (ip), vehicle: Klucel (hydroxypropylcellulose) (HPC)) 95 % of control; (dose: 100.0 mg/kg/injection, schedule: Q04DX003 (ip), vehicle: Klucel (hydroxypropylcellulose) (HPC)) 100 % of control and 104 % of control.
On to `CCN(C(C)(C)C(SSSC(c1ccc(Cl)cc1)C(C)(C)N(CC)S(C)(=O)=O)c1ccc(Cl)cc1)S(C)(=O)=O` (centres undefined), for which the T/C is, setting by setting: (dose: 50.0 mg/kg/injection, schedule: Q04DX003 (ip), vehicle: saline with Tween-80) 109 % of control; under setting [1], 122 % of control; under setting [2], 122 % of control.
Consider `CCCCc1ccc(Sc2cccc3c2C(=O)c2c(Sc4ccc(CCCC)cc4)cccc2C3=O)cc1`, for which the T/C under setting [4] was 95 % of control, the T/C under setting [5] is 90 % of control and the T/C under setting [11] is 95 % of control.
In the case of `C=C1C(=O)CCC1C(=O)O` (centres undefined), the T/C is 100 % of control and 109 % of control under setting [6]; 106 % of control (dose: 178.0 mg/kg/injection, schedule: Q04DX003 (ip), vehicle: saline); 108 % of control (dose: 266.0 mg/kg/injection, schedule: Q04DX003 (ip), vehicle: saline); 150 % of control and 154 % of control and 162 % of control under setting [7]; 123 % of control under setting [10]; 170 % of control and 182 % of control (dose: 600.0 mg/kg/injection, schedule: Q01DX009 (ip), vehicle: saline). Further, the T/C (dose: 900.0 mg/kg/injection, schedule: Q01DX009 (ip), vehicle: saline) is 175 % of control.
Consider `CCCCCCCCCCCC(=O)CCC`, for which the T/C reads like this: (dose: 100.0 mg/kg/injection, schedule: Q04DX003 (ip), vehicle: other) 100 % of control; (dose: 200.0 mg/kg/injection, schedule: Q04DX003 (ip), vehicle: other) 91 % of control and 100 % of control; (dose: 400.0 mg/kg/injection, schedule: Q04DX003 (ip), vehicle: other) 91 % of control and 100 % of control.
As to `O=C1C=C2C(=CCOC2O)O1` (centres undefined), the T/C is 104 % of control (dose: 0.01 mg/kg/injection, schedule: Q01DX009 (ip), vehicle: other); 111 % of control (dose: 0.03 mg/kg/injection, schedule: Q01DX009 (ip), vehicle: other); 104 % of control (dose: 0.1 mg/kg/injection, schedule: Q01DX009 (ip), vehicle: other); 158 % of control (dose: 3.0 mg/kg/injection, schedule: Q01DX009 (ip), vehicle: other).
With `O=S(CC(Cl)c1ccccc1)c1ccccc1` (centres undefined), the T/C (dose: 50.0 mg/kg/injection, schedule: Q01DX009 (ip), vehicle: other) is 106 % of control; the T/C (dose: 100.0 mg/kg/injection, schedule: Q01DX009 (ip), vehicle: other) was 106 % of control; the T/C (dose: 200.0 mg/kg/injection, schedule: Q01DX009 (ip), vehicle: other) was 100 % of control.
Regarding `O=c1n(CCCl)c(=O)n(CCCl)c(=O)n1CCCl`, the T/C was 110 % of control under setting [4]; 100 % of control under setting [1]; 110 % of control under setting [5]; 104 % of control under setting [2]; 100 % of control under setting [11]; 104 % of control under setting [3].
